Reference: ChEMBL document CHEMBL6087412, “Discovery of cloxiquine derivatives as potent HDAC inhibitors for the treatment of melanoma via activating PPARγ” (Eur J Med Chem, 2025)
The source made the active and inactive calls. The rule behind the calls is not given here.

What was measured:
SK-MEL-5 [1] = experiment: cells; conditions: Homo sapiens, SK-MEL-5, 72 h
Description: Antiproliferative activity against human SK-MEL-5 cells assessed as inhibition of cell growth incubated for 72 hrs by MTT assay

in vitro = conditions: human, MRC5 cells
Description: Antiproliferative activity against human MRC5 cells assessed as inhibition of cell growth incubated for 72 hrs by MTT assay

A-375 = experiment: cells; conditions: Homo sapiens, A-375, 72 h
Description: Antiproliferative activity against human A-375 cells assessed as inhibition of cell growth incubated for 72 hrs by MTT assay

SK-MEL-5 [2] = experiment: Induction of apoptosis in human SK-MEL-5 cells assessed as late apoptotic cells at 0.2 uM incubated for 48 hrs by Annexin V-APC/7-AAD staining based flow cytometric analysis (reference value: 0.9 %); format: functional
SK-MEL-5 [3] = experiment: Antiproliferative activity against human SK-MEL-5 cells assessed as inhibition of cell growth incubated for 72 hrs in presence of GW9662 by MTT assay; format: functional, cell-based
SK-MEL-5 [4] = experiment: Antitumor activity against human SK-MEL-5 cells xenografted with BALB/c mouse assessed as tumor growth inhibition at 30 mg/kg,ip administrated for 21 consecutive days; format: functional; conditions: read-out: TGI
SK-MEL-5 [5] = experiment: Induction of cell cycle arrest in human SK-MEL-5 cells assessed as accumulation of cells at S phase at 0.2 uM incubated for 48 hrs by propidium iodide staining based flow cytometry (reference value: 25.36 %); format: functional
[6] = Toxicity in BALB/c mouse xenografted with human SK-MEL-5 cells assessed as body weight loss at 30 mg/kg,ip administrated for 21 consecutive days; format: organism-based; conditions: in vivo
SK-MEL-5 [7] = experiment: Induction of apoptosis in human SK-MEL-5 cells assessed as necrotic cells at 0.2 uM incubated for 48 hrs by Annexin V-APC/7-AAD staining based flow cytometric analysis (reference value: 1.05 %); format: functional
SK-MEL-5 [8] = experiment: Induction of apoptosis in human SK-MEL-5 cells assessed as early apoptotic cells at 1 uM incubated for 48 hrs by Annexin V-APC/7-AAD staining based flow cytometric analysis (reference value: 2.29 %); format: functional
SK-MEL-5 [9] = experiment: Inhibition of cell migration in human SK-MEL-5 cells incubated for 24 hrs by scratch assay; format: functional, cell-based
SK-MEL-5 [10] = experiment: Induction of cell cycle arrest in human SK-MEL-5 cells assessed as accumulation of cells at G0/G1 phase at 0.2 uM incubated for 48 hrs by propidium iodide staining based flow cytometry (reference value: 66.27 %); format: functional
SK-MEL-5 [11] = experiment: Induction of apoptosis in human SK-MEL-5 cells assessed as late apoptotic cells at 1 uM incubated for 48 hrs by Annexin V-APC/7-AAD staining based flow cytometric analysis (reference value: 0.9 %); format: functional
SK-MEL-5 [12] = experiment: Induction of cell cycle arrest in human SK-MEL-5 cells assessed as accumulation of cells at G0/G1 phase at 5 uM incubated for 48 hrs by propidium iodide staining based flow cytometry (reference value: 66.27 %); format: functional
SK-MEL-5 [13] = experiment: Inhibition of cell invasion in human SK-MEL-5 cells at 0.2 to 5 uM incubated for 48 hrs by transwell assay; format: functional, cell-based; conditions: dose 0.2-5 µM
SK-MEL-5 [14] = experiment: Induction of cell cycle arrest in human SK-MEL-5 cells assessed as accumulation of cells at G2/M phase at 5 uM incubated for 48 hrs by propidium iodide staining based flow cytometry (reference value: 8.36 %); format: functional
SK-MEL-5 [15] = experiment: Induction of apoptosis in human SK-MEL-5 cells assessed as viable cells at 0.2 uM incubated for 48 hrs by Annexin V-APC/7-AAD staining based flow cytometric analysis (reference value: 95.77 %); format: functional; conditions: read-out: Activity
SK-MEL-5 [16] = experiment: Induction of cell cycle arrest in human SK-MEL-5 cells assessed as accumulation of cells at S phase at 5 uM incubated for 48 hrs by propidium iodide staining based flow cytometry (reference value: 25.36 %); format: functional
SK-MEL-5 [17] = experiment: Antiproliferative activity against human SK-MEL-5 cells assessed as upregulation of PPARgamma expression incubated for 48 hrs by Western blotting analysis; format: functional, cell-based
SK-MEL-5 [18] = experiment: Inhibition of glycolysis in human SK-MEL-5 cells assessed as reduction in lactate production at 2 uM incubated for 48 hrs in presence of GW9662 by chekineTM micro lactate Assay; format: functional, cell-based
SK-MEL-5 [19] = experiment: Induction of cell cycle arrest in human SK-MEL-5 cells assessed as accumulation of cells at S phase at 1 uM incubated for 48 hrs by propidium iodide staining based flow cytometry (reference value: 25.36 %); format: functional
SK-MEL-5 [20] = experiment: Induction of apoptosis in human SK-MEL-5 cells assessed as necrotic cells at 5 uM incubated for 48 hrs by Annexin V-APC/7-AAD staining based flow cytometric analysis (reference value: 1.05 %); format: functional
SK-MEL-5 [21] = experiment: Induction of apoptosis in human SK-MEL-5 cells assessed as early apoptotic cells at 5 uM incubated for 48 hrs by Annexin V-APC/7-AAD staining based flow cytometric analysis (reference value: 2.29 %); format: functional
SK-MEL-5 [22] = experiment: Induction of apoptosis in human SK-MEL-5 cells assessed as early apoptotic cells at 0.2 uM incubated for 48 hrs by Annexin V-APC/7-AAD staining based flow cytometric analysis (reference value: 2.29 %); format: functional
SK-MEL-5 [23] = experiment: Induction of apoptosis in human SK-MEL-5 cells assessed as viable cells at 5 uM incubated for 48 hrs by Annexin V-APC/7-AAD staining based flow cytometric analysis (reference value: 95.77 %); format: functional; conditions: for viability at 5 µM: Homo sapiens, SK-MEL-5, read-out: Activity
SK-MEL-5 [24] = experiment: Induction of apoptosis in human SK-MEL-5 cells assessed as viable cells at 1 uM incubated for 48 hrs by Annexin V-APC/7-AAD staining based flow cytometric analysis (reference value: 95.77 %); format: functional; conditions: read-out: Activity
SK-MEL-5 [25] = experiment: Induction of apoptosis in human SK-MEL-5 cells assessed as necrotic cells at 1 uM incubated for 48 hrs by Annexin V-APC/7-AAD staining based flow cytometric analysis (reference value: 1.05 %); format: functional
SK-MEL-5 [26] = experiment: Induction of apoptosis in human SK-MEL-5 cells assessed as late apoptotic cells at 5 uM incubated for 48 hrs by Annexin V-APC/7-AAD staining based flow cytometric analysis (reference value: 0.9 %); format: functional
SK-MEL-5 [27] = experiment: Induction of cell cycle arrest in human SK-MEL-5 cells assessed as accumulation of cells at G0/G1 phase at 1 uM incubated for 48 hrs by propidium iodide staining based flow cytometry (reference value: 66.27 %); format: functional
Histone deacetylase 4 = Histone deacetylase 4 (Homo sapiens, UniProt P56524); experiment: Inhibition of HDAC4 (unknown origin) using Ac-Leu-Gly-Lys(Tfa)-AMC as substrate by spectramax microplate reader analysis
Histone deacetylase 4, sequence (P56524 whole entry): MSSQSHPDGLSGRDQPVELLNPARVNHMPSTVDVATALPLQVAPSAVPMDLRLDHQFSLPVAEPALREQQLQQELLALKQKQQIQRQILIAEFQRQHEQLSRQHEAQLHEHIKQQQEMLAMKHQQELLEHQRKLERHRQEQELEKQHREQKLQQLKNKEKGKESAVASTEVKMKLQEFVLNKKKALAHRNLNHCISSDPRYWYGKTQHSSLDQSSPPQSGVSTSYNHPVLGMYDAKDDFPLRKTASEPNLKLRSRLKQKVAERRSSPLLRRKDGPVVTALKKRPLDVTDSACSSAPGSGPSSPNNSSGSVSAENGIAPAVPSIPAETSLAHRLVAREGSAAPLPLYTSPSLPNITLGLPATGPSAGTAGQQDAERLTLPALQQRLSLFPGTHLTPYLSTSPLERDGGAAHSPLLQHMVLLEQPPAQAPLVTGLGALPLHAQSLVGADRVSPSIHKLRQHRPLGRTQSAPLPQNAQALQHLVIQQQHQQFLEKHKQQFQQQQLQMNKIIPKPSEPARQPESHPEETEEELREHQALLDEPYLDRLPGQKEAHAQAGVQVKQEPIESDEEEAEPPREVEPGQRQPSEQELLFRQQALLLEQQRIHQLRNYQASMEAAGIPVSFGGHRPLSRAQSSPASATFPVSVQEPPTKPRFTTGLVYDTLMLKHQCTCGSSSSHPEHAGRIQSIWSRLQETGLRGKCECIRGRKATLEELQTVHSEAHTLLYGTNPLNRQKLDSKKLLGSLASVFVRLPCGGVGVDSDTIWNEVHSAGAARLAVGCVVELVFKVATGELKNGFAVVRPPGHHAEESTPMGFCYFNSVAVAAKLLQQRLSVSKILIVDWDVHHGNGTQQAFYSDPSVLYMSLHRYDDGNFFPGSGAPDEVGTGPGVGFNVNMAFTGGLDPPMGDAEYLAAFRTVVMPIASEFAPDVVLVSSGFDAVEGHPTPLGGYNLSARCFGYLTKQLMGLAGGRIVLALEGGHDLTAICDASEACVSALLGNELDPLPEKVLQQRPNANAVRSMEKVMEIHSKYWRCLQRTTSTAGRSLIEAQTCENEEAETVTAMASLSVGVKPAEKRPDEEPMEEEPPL

SK-MEL-5 [28] = experiment: Induction of cell cycle arrest in human SK-MEL-5 cells assessed as accumulation of cells at G2/M phase at 1 uM incubated for 48 hrs by propidium iodide staining based flow cytometry (reference value: 8.36 %); format: functional
SK-MEL-5 [29] = experiment: Induction of cell cycle arrest in human SK-MEL-5 cells assessed as accumulation of cells at G2/M phase at 0.2 uM incubated for 48 hrs by propidium iodide staining based flow cytometry (reference value: 8.36 %); format: functional

## O=C(CCc1ccc(COc2ccc(Cl)c3cccnc23)cc1)NO
SK-MEL-5 [1]
  IC50: 17.4 µM
In vitro
  IC50 at 72 h: > 50 µM
A-375
  IC50: 22.7 µM

## O=C(NO)c1cccc(COc2ccc(Cl)c3cccnc23)c1
SK-MEL-5 [1]
  IC50: 24.2 µM
In vitro
  IC50 at 72 h: > 50 µM
A-375
  IC50: 29.5 µM

## O=C(NO)c1ccccc1COc1ccc(Cl)c2cccnc12
SK-MEL-5 [1]
  IC50: 8.53 µM
In vitro
  IC50 at 72 h: 21.3 µM
A-375
  IC50: 9.78 µM

## O=C(CCCOc1ccc(Cl)c2cccnc12)NO
SK-MEL-5 [1]
  IC50: 6.27 µM
In vitro
  IC50 at 72 h: 19.5 µM
A-375
  IC50: 6.57 µM

## O=C(NO)c1ccccc1COc1cccc2cccnc12
SK-MEL-5 [1]
  IC50: 46.6 µM
In vitro
  IC50 at 72 h: > 50 µM
A-375
  IC50: > 50 µM

## O=C(NO)c1ccc(CCOc2cccc3cccnc23)cc1
SK-MEL-5 [1]
  IC50: 13.7 µM
In vitro
  IC50 at 72 h: 29 µM
A-375
  IC50: 13.3 µM

## O=C(NO)c1ccc(COc2cccc3cccnc23)cc1
SK-MEL-5 [1]
  IC50: 15 µM
In vitro
  IC50 at 72 h: 18.4 µM
A-375
  IC50: 15.1 µM

## O=C(CCCCCCOc1cccc2cccnc12)NO
SK-MEL-5 [2]
  Activity: 2.81%
SK-MEL-5 [3]
  Activity: inactive
SK-MEL-5 [4]
  inhibition in vivo at 30 mg/kg: 50.2%
SK-MEL-5 [5]
  Activity: 23.77%
SK-MEL-5 [1]
  IC50: 0.93 µM
[6]
  Activity: Non-toxic
SK-MEL-5 [7]
  Activity: 0.85%
SK-MEL-5 [8]
  Activity: 9.75%
SK-MEL-5 [9]
  inhibition: Dose-dependent-effect
SK-MEL-5 [10]
  Activity: 64.96%
SK-MEL-5 [11]
  Activity: 8.03%
SK-MEL-5 [12]
  Activity: 50.23%
SK-MEL-5 [13]
  inhibition: Active
In vitro
  IC50 at 72 h: 3.64 µM
SK-MEL-5 [14]
  Activity: 22.01%
SK-MEL-5 [15]
  viability at 0.2 µM: 92.7%
SK-MEL-5 [16]
  Activity: 27.75%
SK-MEL-5 [17]
  Activity: Dose-dependent-effect
SK-MEL-5 [18]
  inhibition: inactive
SK-MEL-5 [19]
  Activity: 24.55%
SK-MEL-5 [20]
  Activity: 2.39%
A-375
  IC50: 1.2 µM
SK-MEL-5 [21]
  Activity: 35.15%
SK-MEL-5 [22]
  Activity: 3.68%
SK-MEL-5 [23]
  viability at 5 µM: 49.9%
SK-MEL-5 [24]
  viability at 1 µM: 77.8%
SK-MEL-5 [25]
  Activity: 4.41%
SK-MEL-5 [26]
  Activity: 12.52%
SK-MEL-5 [27]
  Activity: 59.45%
Histone deacetylase 4
  IC50: 19.3 µM
SK-MEL-5 [28]
  Activity: 16%
SK-MEL-5 [29]
  Activity: 11.27%

## O=C(CCCCOc1ccc(Cl)c2cccnc12)NO
SK-MEL-5 [1]
  IC50: 21.6 µM
In vitro
  IC50 at 72 h: > 50 µM
A-375
  IC50: 22.2 µM

## O=C(CCCCCCC(=O)Nc1ccccc1)NO [VORINOSTAT]
SK-MEL-5 [1]
  IC50: 2.16 µM
SK-MEL-5 [12]
  Activity: 55.91%
SK-MEL-5 [14]
  Activity: 19.87%
SK-MEL-5 [16]
  Activity: 24.22%
SK-MEL-5 [20]
  Activity: 2.39%
SK-MEL-5 [21]
  Activity: 32.5%
SK-MEL-5 [23]
  Activity: 57.12%
SK-MEL-5 [26]
  Activity: 7.99%

## O=C(/C=C/c1ccc(COc2cccc3cccnc23)cc1)NO
SK-MEL-5 [1]
  IC50: 3.67 µM
In vitro
  IC50 at 72 h: 7.34 µM
A-375
  IC50: 3.72 µM

## O=C(CCCCCOc1ccc(Cl)c2cccnc12)NO
SK-MEL-5 [1]
  IC50: 13.7 µM
In vitro
  IC50 at 72 h: 42.1 µM
A-375
  IC50: 15 µM

## Oc1ccc(Cl)c2cccnc12 [CLOXYQUIN]
SK-MEL-5 [4]
  inhibition in vivo at 30 mg/kg: 24.3%
SK-MEL-5 [1]
  IC50: 5 µM
SK-MEL-5 [12]
  Activity: 58.85%
In vitro
  IC50 at 72 h: 20.4 µM
SK-MEL-5 [14]
  Activity: 13.48%
SK-MEL-5 [16]
  Activity: 27.67%
SK-MEL-5 [20]
  Activity: 3.08%
A-375
  IC50: 6.08 µM
SK-MEL-5 [21]
  Activity: 6.96%
SK-MEL-5 [23]
  viability at 5 µM: 85.1%
SK-MEL-5 [26]
  Activity: 4.88%

## O=C(CCCCCCOc1ccc(Cl)c2cccnc12)NO
SK-MEL-5 [1]
  IC50: 3.47 µM
In vitro
  IC50 at 72 h: 8.07 µM
A-375
  IC50: 3.68 µM

## O=C(CCCOc1cccc2cccnc12)NO
SK-MEL-5 [1]
  IC50: 29.8 µM
In vitro
  IC50 at 72 h: > 50 µM
A-375
  IC50: 32.8 µM

## O=C(NO)c1ccc(COc2ccc(Cl)c3cccnc23)cc1
SK-MEL-5 [1]
  IC50: > 50 µM
In vitro
  IC50 at 72 h: > 50 µM
A-375
  IC50: > 50 µM

## O=C(/C=C/c1ccc(COc2ccc(Cl)c3cccnc23)cc1)NO
SK-MEL-5 [1]
  IC50: 3.7 µM
In vitro
  IC50 at 72 h: 6.94 µM
A-375
  IC50: 3.45 µM

## O=C(NO)c1cccc(COc2cccc3cccnc23)c1
SK-MEL-5 [1]
  IC50: 41.5 µM
In vitro
  IC50 at 72 h: > 50 µM
A-375
  IC50: > 50 µM

## O=C(Cc1ccc(COc2cccc3cccnc23)cc1)NO
SK-MEL-5 [1]
  IC50: > 50 µM
In vitro
  IC50 at 72 h: > 50 µM
A-375
  IC50: > 50 µM

## O=C(NO)c1ccc(CCOc2ccc(Cl)c3cccnc23)cc1
SK-MEL-5 [1]
  IC50: 10.8 µM
In vitro
  IC50 at 72 h: 23.3 µM
A-375
  IC50: 11.9 µM

## O=C(CCCCOc1cccc2cccnc12)NO
SK-MEL-5 [1]
  IC50: > 50 µM
In vitro
  IC50 at 72 h: > 50 µM
A-375
  IC50: > 50 µM

## O=C(CCCCCOc1cccc2cccnc12)NO
SK-MEL-5 [1]
  IC50: 12.7 µM
In vitro
  IC50 at 72 h: 28.1 µM
A-375
  IC50: 13.8 µM
